Source: patent publication US6410590B1, “Compounds having antitumor activity: process for their preparation and pharmaceutical compositions containing them” (Dr. Reddy's Research Foundation, priority 2000, dated 2002)
Where two headings read alike, the source gives them in different places.

Experiments:
MCF-7/ADR = assay: Sulforhodamine B growth inhibition, breast panel; assay type: cell-based, human; conditions: 48 h, SRB, read-out: GROWTH INHIBITION (GI 50)
Method: (§1) Each test compound was screened against a battery of cell lines representing eight different types of cancer. In a typical procedure 1×10^4 cells were seeded into each well of 96-well plates in 100 μL volume of RPMI-1640 containing antibiotics and 10% FCS.
(§2) The plates were incubated at 37° C. in presence of CO2. After 24 h, test compounds were evaluated at five 10 fold dilutions ranging from 100 to 0.01 μM. To each test well 100 μL of test compound solution was added and medium with vehicle was added to control wells and the plates were further incubated. After 48 h of incubation, plates were terminated by Sulforhodamine B method.
(§3) The optical density which is proportional to protein mass, is then read by automated spectrophotometric plate readers at a wavelength of 515 nm.

H522 = assay: Sulforhodamine B growth inhibition, lung panel; assay type: cell-based, human; conditions: SRB, read-out: GROWTH INHIBITION (GI 50)
Method: as §1, §2, §3

U251 = assay: Sulforhodamine B growth inhibition, CNS panel; assay type: cell-based, human; conditions: SRB, read-out: GROWTH INHIBITION (GI 50)
Method: as §1, §2, §3

SW-620 = assay: Sulforhodamine B growth inhibition, colon panel; assay type: cell-based, human; conditions: SW-620, colon, 48 h, SRB, read-out: GROWTH INHIBITION (GI 50)
Method: as §1, §2, §3

SKOV-3 = assay: Sulforhodamine B growth inhibition, ovarian panel; assay type: cell-based, human; conditions: SKOV-3, ovarian, 48 h, SRB, read-out: GROWTH INHIBITION (GI 50)
Method: as §1, §2, §3

M14 = assay: Sulforhodamine B growth inhibition, melanoma panel; assay type: cell-based, human; conditions: 48 h, SRB, read-out: GROWTH INHIBITION (GI 50)
Method: as §1, §2, §3

DU145 = assay: Sulforhodamine B growth inhibition, prostate panel; assay type: cell-based, human; conditions: SRB, read-out: GROWTH INHIBITION (GI 50)
Method: as §1, §2, §3

A498 = assay: Sulforhodamine B growth inhibition, renal panel; assay type: cell-based, human; conditions: 48 h, SRB, read-out: GROWTH INHIBITION (GI 50)
Method: as §1, §2, §3

tumor cell lines = conditions: cited from earlier work
HIV-1/MN = assay: Anti HIV activity, P24 antigen in infected PM-1 cells; assay type: cell-based; conditions: 96 h; for inhibition at 1 µM: Human immunodeficiency virus 1, PM1, 1 μM, read-out: Percent Inhibition
Method: Human CD4+ T cell line PM-1 used in the assay was cultured in RPMI-1640 medium containing 10% Fetal bovine serum, 2 g/L sodium bicarbonate, 100,000 units/L Pencillin-G and 100 mg/L streptomycin. Healthy PM-1 cells were plated on the first day in a 96 well plate at […]. After 24 h HIV-1/MN was added to the culture and incubated for 2 h for infection. Cells were washed twice with PBS to remove the virus in the culture. Different concentrations of DRF compounds ranging from 10^−4 to 10^−8 M were added to the culture and incubated for 96 h. The viability of cells was then assessed by standard MTT assay and the viral antigen P24 levels were estimated by ELSA method. Based on the MTT assay values the P 24 antigen values were corrected.
All the samples were tested in triplicates and the average was used for calculations. AZT was used as standard compound for comparison.

[1] = Plasma triglyceride and body weight reduction in Swiss albino mice; assay type: in vivo; conditions: for Percentage reduction TG: plasma triglyceride
Method: (b) Plasma triglyceride and body weight reduction in Swiss albino mice Male Swiss albino mice (SAM) were obtained from NIN and housed in DRF animal house. All these animals were maintained under 12 hour light and dark cycle at 25±1° C. Animals were given standard laboratory chow (NIN, Hyderabad, India) and water, ad libitum. SAM of 20-25 g body weight range (Oliver, P., Plancke, M. O., Marzin, D., Clavey, V., Sauzieres, J and Fruchart, J. C. Effects of fenofibrate, gemfibrozil and nicotinic acid on plasma lipoprotein levels in normal and hyperlipidemic mice. Atherosclerosis. 1988. 70: 107-114).
The test compounds were administered orally to Swiss albino mice at 0.3 to 500 mg/kg dose for 6 days. Control mice were treated with vehicle (Chremophore/DMSO/H2O; dose 10 ml/kg).
The blood samples were collected in fed state 1 hour after drug administration on 0 and 6 day of treatment. The blood was collected from the retro-orbital sinus through heparinised capillary in EDTA containing tubes. After centrifugation, plasma sample was separated for triglyceride (Wieland, O. Methods of Enzymatic analysis. Bergermeyer, H. O., Ed., 1963. 211-214; Trinder, P. Ann. Clin. Biochem. 1969. 6: 24-27). Measurement of plasma triglyceride was done using commercial kits (Dr. Reddy's Diagnostic Division, Hyderabad, India).
The formula used to measure percent reduction in blood sugar/triglycerides is given above.

Human lymphocytes = assay: Lymphocyte proliferation, tritiated thymidine incorporation; assay type: cell-based; conditions: 1 μM; PHA-stimulated human lymphocytes
Method: Human lymphocycles were isolated from whole blood by using Ficoll Hypaque Plus (Amersham). On day one, 1 million lymphocytes were seeded into each well of 96 well plate in 100 μL volume of RPMI 1640 medium containing 10% FCS and Phytohemagglutitin A at 10 μg/ml concentration. Plates were incubated at 37° C. in CO2 incubator for 24 h. Test compounds at various concentrations were added to test wells and only medium with vehicle was added to control wells. After 48 h of incubation […] of tritiated thymidine was added to each well. After 24 h of thymidine addition the cells were harvested and the incorporated radioactivity was determined.
Stimulation index (si) was calculated using the formula, […]

HIV-1(IIIB) = conditions: cited from earlier work
KB = conditions: cited from earlier work
[2] = test system: P388 lymphocytic leukemia; conditions: cited from earlier work
UACC62 = assay: Sulforhodamine B growth inhibition, melanoma panel; assay type: cell-based; conditions: Homo sapiens, UACC-62, 48 h, SRB, read-out: GROWTH INHIBITION (GI 50)
Method: as §1, §2, §3

Row | Compound | GI50 (MCF-7/ADR; Homo sapiens, NCI/ADR-RES) | GI50 (H522; Homo sapiens, NCI-H522, 48 h) | GI50 (U251; Homo sapiens, U-251, 48 h) | GI50 (SW-620; Homo sapiens) | GI50 (SKOV-3; Homo sapiens, SK-OV-3) | GI50 (M14; Homo sapiens) | GI50 (DU145; Homo sapiens, DU-145, 48 h) | GI50 (A498; Homo sapiens) | also measured
1 | CC1(C)OC[C@@]2(C)C3CCC4(CO4)C(C/C=C4/C(=O)OC[C@H]4O)[C@@]3(C)CC[C@H]2O1 (stereo partly drawn) [Example 5, 8,17-EPOXY ANDROGRAPHOLIDE 3,19-ACETONIDE] | – | – | – | – | – | – | – | – | melting point: 179 °C
2 | CCC(=O)OC[C@]1(C)C(OC(=O)CC)CC[C@]2(C)C(C/C=C3/C(=O)OCC3OC(=O)/C=C/c3ccc(OC)cc3)[C@]3(CCC12)CO3 (stereo partly drawn) [Example-9, 14-[4′-METHOXYCINNAMOYL]3,19-DIPROPIONYL 8,17-EPOXY ANDROGRAPHOLIDE] | 3000 nM | 4800 nM | 3000 nM | 600 nM | 2000 nM | 750 nM | 2000 nM | 3000 nM | –
3 | CCC(=O)OC[C@@]1(C)C2CC[C@]3(CO3)C(C/C=C3/C(=O)OC[C@H]3OC(=O)/C=C/c3ccc4c(c3)OCO4)[C@@]2(C)CC[C@H]1OC(=O)CC (stereo partly drawn) [Example 11, 14-[3′,4′-METHYLENEDIOXYCINNAMOYL]3,19-DIPROPIONYL 8,17-EPOXY ANDROGRAPHOLIDE] | – | – | – | – | – | – | – | – | melting point: 76.7 °C
4 | CCC(=O)OC[C@@]1(C)C2CC[C@]3(CO3)C(C/C=C3/C(=O)OC[C@H]3OC(=O)/C=C/c3ccc(OC)c(OC)c3)[C@@]2(C)CC[C@H]1OC(=O)CC (stereo partly drawn) [Example-10, 8,17-EPOXY 14-[3′,4′-DIMETHOXYCINNAMOYL]3,19-DIPROPIONYL ANDROGRAPHOLIDE] | 1500 nM | 7500 nM | 2000 nM | 400 nM | 2500 nM | 800 nM | 2500 nM | 3500 nM | –
5 | CCC(=O)OC[C@@]1(C)C2CC[C@]3(CO3)C(C/C=C3/C(=O)OC[C@H]3OC(=O)/C=C/c3ccccc3)[C@@]2(C)CC[C@H]1OC(=O)CC (stereo partly drawn) [Example-8, 14-CINNAMOYL 3,19-DIPROPIONYL 8,17-EPOXY ANDROGRAPHOLIDE] | 80 nM | 20000 nM | 6000 nM | 2500 nM | 10000 nM | 2500 nM | 4000 nM | 3000 nM | –
6 | C=C1CCC2[C@](C)(CC[C@@H](O)[C@@]2(C)CO)C1/C=C/C1=CCOC1=O (stereo partly drawn) [14-deoxy-11,12-didehydroandrographolide] | – | – | – | – | – | – | – | – | cytotoxic activity in tumor cell lines (tumor cell lines): no cytotoxic activity
7 | C=C1CC[C@@H]2[C@](C)(CO[C@@H]3O[C@H](CO)[C@@H](O)[C@H](O)[C@H]3O)CCC[C@@]2(C)[C@@H]1CCC1=CCOC1=O [neoandrographolide] | – | – | – | – | – | – | – | – | cytotoxic activity in tumor cell lines (tumor cell lines): no cytotoxic activity
8 | CCC(=O)OC[C@@]1(C)C2CC[C@]3(CO3)C(C/C=C3/C(=O)OC[C@H]3OC(=O)CNC(=O)OC(C)(C)C)[C@@]2(C)CC[C@H]1OC(=O)CC (stereo partly drawn) [Example-13, 14-[N-BOC GLYCINYL]3,19-DIPROPIONYL 8,17-EPOXY ANDROGRAPHOLIDE] | – | – | – | – | – | – | – | – | inhibition at 1 µM (HIV-1/MN): 73.9%; Percentage reduction TG ([1]; 250 mg/kg orally for 6 days): 31%; Stimulation Index (SI) (Human lymphocytes): 24
9 | Dehydroandrographolide Succinic acid monoester [DASM] | – | – | – | – | – | – | – | – | minimal concentration inhibitory to HIV-1(IIIB) (HIV-1(IIIB)): 1.6 to 3.1 µg/mL
10 | C=C1CC[C@@H]2[C@](C)(CO)[C@H](O)CC[C@@]2(C)[C@@H]1C/C=C1/C(=O)OC[C@H]1O [Andrographolide] | – | – | – | – | – | – | – | – | cytotoxic activity against KB (KB): potent cytotoxic activity; cytotoxic activity against P388 [2]: potent cytotoxic activity
11 | C[C@]12CC[C@@H](OC(=O)CCl)[C@@](C)(COC(=O)CCl)C1CC[C@]1(CO1)C2C/C=C1/C(=O)OC[C@H]1OC(=O)CCl (stereo partly drawn) [Example-4, 3,14,19-TRIS CHLORO ACETYL 8,17-EPOXY ANDROGRAPHOLIDE] | 800 nM | 5500 nM | 800 nM | 25000 nM | 450 nM | – | 4500 nM | 15000 nM | GI50 (UACC62): 550 nM
12 | C[C@]12CC[C@@H](O)[C@@](C)(CO)C1CC[C@]1(CO1)C2C/C=C1/C(=O)OC[C@H]1OC(=O)/C=C/c1ccccc1 (stereo partly drawn) [Example-7, 14-CINNAMOYL 3,19-DIHYDROXY 8,17-EPOXY ANDROGRAPHOLIDE] | 2000 nM | 6000 nM | 6000 nM | 500 nM | 4000 nM | 1000 nM | 5500 nM | 9000 nM | inhibition at 1 µM (HIV-1/MN): 68.4%; Percentage reduction Body weight ([1]; 100 mg/kg orally for 6 days): 29%; Percentage reduction TG ([1]; 100 mg/kg orally for 6 days): 42%; Percentage reduction Body weight ([1]; 250 mg/kg orally for 6 days): 13%; Percentage reduction TG ([1]; 250 mg/kg orally for 6 days): 52%; Percentage reduction TG ([1]; 500 mg/kg orally for 6 days): 62%; Stimulation Index (SI) (Human lymphocytes): 25
13 | 3,14,19-TRIACETYL 8,17-EPOXY ANDROGRAPHOLIDE [Example-2] | – | – | – | – | – | – | – | – | GI50 (MCF-7/ADR): 5500 nM; Percent Inhibition (HIV-1/MN; 0.1 μM): 75.31%; Percent Inhibition (HIV-1/MN; 1 μM): 77.25%; GI50 (H522; 48 h): 20000 nM; Percentage reduction TG ([1]; 250 mg/kg orally for 6 days): 19%; GI50 (U251; 48 h): 3000 nM; Stimulation Index (SI) (Human lymphocytes): 32; GI50 (SW-620): 1000 nM; GI50 (SKOV-3): 4000 nM; GI50 (M14): 7500 nM; GI50 (DU145; 48 h): 20000 nM; GI50 (A498): 100 nM
